Among the data in patent US10030016B2 (Sunesis Pharmaceuticals, Inc., priority 2009, dated 2018) are IC50 and EC50 values, retold here.

One test has as its target PDK1 (Homo sapiens (Human), UniProt O15530). Nature of the test: PDK1 kinase assay (coupled PDK1/AKT/FAM-crosstide assay, IMAP fluorescence polarization). The test is classed as biochemical. The method in brief:
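GST-tagged human PDK1 (aa 51-359, 0.75 nM) from insect cells activated unphosphorylated GST-AKT2 (aa 140-467–PIFtide fusion, 10 nM), which phosphorylated 100 nM FAM-crosstide; 40 μM ATP, pH 7.2 Tris/MgCl2, 30 min at 25° C. IMAP fluorescence polarization read-out; ΔmP versus compound concentration fitted with a 4-parameter curve.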
(Fluorescence polarisation rises when a labelled molecule tumbles more slowly, as on binding a larger partner.)

The subject of test [1] is phospho-akt (Thr308) in PC-3 cells. Nature of the test: Inhibition of phospho-akt (Thr308) in PC-3 cells, MSD phospho-akt 308 ELISA kit. Format: cell-based. Conditions: Homo sapiens, 2 hours, no serum, read-out: EC50. Summed up:
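Electrochemiluminescent MSD ELISA of Thr308-phosphorylated Akt after a 2 h serum-free compound exposure of PC-3 cells (15,000/well, plated overnight). Controls: DMSO (high), 5 μM wortmannin (low). Lysate binding overnight at 4 °C; detection antibody 1 h at room temperature.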

Where [2] appears, read: inhibition of phospo-PDK1 in vitro.
The mark [3] stands for this setting: inhibition of P308 Akt in PC-3 cells, MSD.
Where [4] appears, read: inhibition of P308 Akt in PC-3 cells using MSD.

Each structure is given as a SMILES string. Where a name gives a salt, the structure may show the parent alone. Read-outs that look alike come from different tables or passages of the source.

Sequence of PDK1 (O15530 51-359): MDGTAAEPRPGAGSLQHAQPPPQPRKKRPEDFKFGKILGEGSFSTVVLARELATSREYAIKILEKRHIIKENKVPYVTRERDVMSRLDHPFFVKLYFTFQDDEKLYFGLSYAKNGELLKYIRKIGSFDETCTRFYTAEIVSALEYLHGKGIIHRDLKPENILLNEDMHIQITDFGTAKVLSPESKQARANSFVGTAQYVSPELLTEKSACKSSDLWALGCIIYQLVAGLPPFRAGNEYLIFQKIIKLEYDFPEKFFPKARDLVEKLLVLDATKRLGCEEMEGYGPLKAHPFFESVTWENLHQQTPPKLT

For orientation: IC50 means the midpoint of a concentration-inhibition curve. Read a low IC50 as higher potency. In general, EC50 refers to the concentration at which the effect is half-maximal. `C#CCNC(=O)c1cccnc1NCc1cc(OC(C)C)cc(-c2c[nH]c3ncc(C(=O)NC4CC4)cc23)c1` [Example 4.1.16, N-cyclopropyl-3-[3-(propan-2-yloxy)-5-({[3-(prop-2-yn-1-ylcarbamoyl)pyridin-2-yl]amino}methyl)phenyl]-1H-pyrrolo[2,3-b] pyridine-5-carboxamide]: the IC50 against PDK1 (setting [2]) was 0.1 to 1 µM. Moreover, the EC50 in test [1] (setting [3]) lay in the range of 1 to 10 µM.

The compound `Cc1cc(-c2ccc(CNc3ncc(C#N)cc3C(=O)N[C@@H](C)c3ccc(F)cc3)cc2)cnc1N` [Example 104, (S)-2-(4-(6-amino-5-methylpyridin-3-yl)benzylamino)-5-cyano-N-(1-(4-fluorophenyl)ethyl)nicotinamide] displayed an IC50 against PDK1 (inhibition of PDK1 in vitro) below 0.1 µM. In test [1] (setting [4]), the concentration for a half-maximal effect (EC50) was below 1 µM.

For the compound `Nc1n[nH]c2ncc(-c3ccc(CNc4ncc(C(F)(F)F)cc4C(=O)NCc4cscn4)cc3)cc12` [Example 273, 2-(4-(3-amino-1H-pyrazolo [3,4-b]pyridin-5-yl)benzylamino)-N-(thiazol-4-ylmethyl)-5-(trifluoromethyl) nicotinamide], on PDK1 (inhibition of PDK1 in vitro), the IC50 is below 0.1 µM. The EC50 in test [1] (setting [4]) lay in the range of 1 to 10 µM.

At PDK1 (setting [2]), `Nc1ncnc2ccc(-c3ccc(CNc4ncccc4C(=O)NCc4cccc(Cl)c4)s3)cc12` [Example 3.27, 2-({[5-(4-aminoquinazolin-6-yl)thiophen-2-yl]methyl}amino)-N-(3-chlorobenzyl) pyridine-3-carboxamide (TFA salt)] registered a 50% inhibitory concentration (IC50) of 0.1 to 1 µM. In addition, in test [1] (PC-3, 2 h, inhibition of P308 Akt in PC-3 cells, MSD), the EC50 was above 10 µM.

With `CNC(=O)c1cccnc1NCc1cccc(-c2c[nH]c3ncccc23)c1` [Example 1.15, N-methyl-2-{[3-(1H-pyrrolo [2,3-b]pyridin-3-yl)benzyl]amino}pyridine-3-carboxamide], the concentration for half-maximal inhibition (IC50) against PDK1 (setting [2]) is above 5 µM. In addition, the EC50 in test [1] (setting [3]) was above 10 µM.

At PDK1 (inhibition of PDK1 in vitro), `Cc1cc(F)ccc1NC(=O)c1cc(C(F)(F)F)cnc1NCc1ccc(-c2cnc3[nH]nc(N)c3c2)cc1` [Example 295, 2-(4-(3-amino-1H-pyrazolo [3,4-b]pyridin-5-yl)benzylamino)-N-(4-fluoro-2-methylphenyl)-5-(trifluoromethyl)nicotinamide] had an IC50 below 0.1 µM. Moreover, the EC50 in test [1] (setting [4]) is below 1 µM.

The compound `CC(N)CCc1nc(-c2ccc(CNc3ncc(C#N)cc3C(=O)N[C@@H](C)c3ccc(F)cc3)cc2)cnc1N` (stereo partly drawn) [Example 85, 2-{4-[5-Amino-6-(3-amino-butyl)-pyrazin-2-yl]-benzylamino}-5-cyano-N-[(S)-1-(4-fluoro-phenyl)-ethyl]-nicotinamide] gave an IC50 against PDK1 (inhibition of PDK1 in vitro) below 0.1 µM. In addition, the EC50 in test [1] (setting [4]) was below 1 µM.

On PDK1 (setting [2]), `N#Cc1cnc(N[C@@H](COc2ccc3[nH]c(=O)[nH]c3c2)c2ccccc2)c(C(=O)NCc2ccc(F)c(F)c2)n1` [Example 16.11, (R)-6-cyano-N-(3,4-difluorobenzyl)-3-(2-(2-oxo-2,3-dihydro-1H-benzo[d]imidazol-5-yloxy)-1-phenylethylamino) pyrazine-2-carboxamide] registered an IC50 below 0.1 µM. For the same compound, the EC50 in test [1] (setting [3]) was below 1 µM.

For `Cn1cc(-c2ccc(CNc3ncc(C(F)(F)F)cc3C(=O)Nc3ccc(F)cn3)cc2)c2c(N)ncnc21` [Example 338, 2-(4-(4-amino-7-methyl-7H-pyrrolo[2,3-d]pyrimidin-5-yl)-benzylamino)-N-(5-fluoropyridin-2-yl)-5-(trifluoromethyl)nicotinamide], at PDK1 (inhibition of PDK1 in vitro), the IC50 was below 0.1 µM. In test [1] (setting [4]), the EC50 was in the range of 1 to 10 µM.

`Nc1ncnc2ccc(-c3csc(CNc4ncccc4C(=O)NCc4ccc(F)c(F)c4)n3)cc12` [Ex. 6.7, 2-({[4-(4-aminoquinazolin-6-yl)-1,3-thiazol-2-yl]methyl}amino)-N-(3,4-difluoro-benzyl) pyridine-3-carboxamide] had an IC50 on PDK1 (setting [2]) below 0.1 µM. Moreover, the EC50 in test [1] (setting [3]) was above 10 µM.

`N#Cc1cnc(N[C@@H](COc2ccc3[nH]c(=O)[nH]c3c2)c2ccccc2)c(C(=O)NCc2ccc(F)cc2)n1` [Example 16.12, (R)-6-cyano-N-(4-fluorobenzyl)-3-(2-(2-oxo-2,3-dihydro-1H-benzo[d]imidazol-5-yloxy)-1-phenylethylamino) pyrazine-2-carboxamide] yielded an IC50 against PDK1 (setting [2]) below 0.1 µM. In test [1] (setting [3]), the concentration for a half-maximal effect (EC50) was below 1 µM.

With `C[C@H](NC(=O)c1nccnc1NCc1ccc(-c2cc3c(N)ncnc3cn2)s1)c1ccc(F)c(F)c1` [Example 3.78, 3-({[5-(4-aminopyrido[3,4-d]pyrimidin-6-yl)thiophen-2-yl]methyl}amino)-N-[(1S)-1-(3,4-difluorophenyl)ethyl] pyrazine-2-carboxamide (TFA salt)], the IC50 at PDK1 (setting [2]) fell in the range of 0.1 to 1 µM. Also, in test [1] (setting [3]), the EC50 is below 1 µM.

In turn, `CN(c1ncnc2ccc(-c3ccc(CNc4ncccc4C(=O)NCc4ccc(F)c(F)c4)s3)cc12)C1CCCCC1` [Example 4.21, 2-(((5-(4-(cyclohexyl (methyl)amino)quinazolin-6-yl)thiophen-2-yl)methyl)amino)-N-(3,4-difluorobenzyl) nicotinamide] returned an IC50 against PDK1 (setting [2]) above 5 µM. In addition, the EC50 in test [1] (setting [3]) was above 10 µM.

As for `C[C@H](NC(=O)c1cc(C#N)cnc1NCc1ccc(Oc2ccnc(N)c2)cc1)c1ccc(F)cc1` [Example 388], on PDK1 (inhibition of PDK1 in vitro), the IC50 was above 5 µM. Moreover, in test [1] (setting [4]), the EC50 was above 10 µM.

In turn, `C[C@H](NC(=O)c1cc(C#N)cnc1NCc1ccc(-c2cnc(Nc3ccn(C)n3)nc2)cc1)c1ccc(F)cc1` [Example 125, (S)-5-cyano-N-(1-(4-fluorophenyl)ethyl)-2-(4-(2-(1-methyl-1H-pyrazol-3-ylamino)pyrimidin-5-yl)benzylamino) nicotinamide] yielded an IC50 against PDK1 (inhibition of PDK1 in vitro) below 0.1 µM. The EC50 in test [1] (setting [4]) was 1 to 10 µM.

Consider `C[C@H](NC(=O)c1nc(C#N)cnc1N[C@H](C)c1ccc(-c2cn(C)c3ncnc(N)c23)cc1)c1ccc(F)c(F)c1` [Example 399, 3-((R)-1-(4-(4-amino-7-methyl-7H-pyrrolo[2,3-d]pyrimidin-5-yl)phenyl)ethylamino)-6-cyano-N-((S)-1-(3,4-difluorophenyl)ethyl)pyrazine-2-carboxamide], for which, on PDK1 (inhibition of PDK1 in vitro), the IC50 was below 0.1 µM. Also, the EC50 in test [1] (setting [4]) is below 1 µM.

At PDK1 (inhibition of PDK1 in vitro), `C[C@H](NC(=O)c1cc(C#N)cnc1NCc1ccc(-c2cnc3c(c2)CCN3)cc1)c1ccc(F)cc1` [Example 139, (S)-5-cyano-2-(4-(3,4-dihydro-1H-pyrrolo [2,3-b]pyridin-5-yl)benzylamino)-N-(1-(4-fluorophenyl)ethyl) nicotinamide] gave an IC50 below 0.1 µM. In addition, the EC50 in test [1] (setting [4]) was below 1 µM.

For the compound `C[C@H](NC(=O)c1cc(C#N)cnc1NCc1ccc(-c2cnc(N)c(C(=O)O)c2)cc1)c1ccc(F)cc1` [Example 148, (S)-2-amino-5-(4-((5-cyano-3-(1-(4-fluorophenyl)ethylcarbamoyl)pyridin-2-ylamino)methyl)phenyl) nicotinic acid], the IC50 at PDK1 (inhibition of PDK1 in vitro) is below 0.1 µM. For the same compound, the EC50 in test [1] (setting [4]) was above 10 µM.

For `C[C@H](NC(=O)c1cc(C#N)cnc1NCc1ccc(-c2cnc3[nH]nc(N)c3n2)cc1)c1ccc(F)cc1` [Example 183, 2-[4-(3-Amino-1H-pyrazolo [3,4-b]pyrazin-5-yl)-benzylamino]-5-cyano-N-[(S)-1-(4-fluoro-phenyl)-ethyl]-nicotinamide], the IC50 against PDK1 (inhibition of PDK1 in vitro) was below 0.1 µM. Moreover, the EC50 in test [1] (setting [4]) was below 1 µM.

`C[C@H](NC(=O)c1cccnc1NCc1ccc(-c2ccc3ncc(-n4ccnc4)nc3c2)s1)c1ccc(F)c(F)c1` [Example 4.29, (S)-2-(((5-(3-(1H-imidazol-1-yl)quinoxalin-6-yl)thiophen-2-yl)methyl)amino)-N-(1-(3,4-difluorophenyl)ethyl) nicotinamide]: the IC50 at PDK1 (setting [2]) is above 5 µM. For the same compound, the EC50 in test [1] (setting [3]) is above 10 µM.

At PDK1 (inhibition of PDK1 in vitro), `C[C@H](NC(=O)c1cccnc1NCc1ccc(-c2ccc3ncnc(NC4CC4)c3c2)s1)c1ccc(F)c(F)c1` [Example 386, 2-{[5-(4-Cyclopropylamino-quinazolin-6-yl)-thiophen-2-ylmethyl]-amino}-N-[(S)-1-(3,4-difluoro-phenyl)-ethyl]-nicotinamide] yielded an IC50 below 0.1 µM. Further, in test [1] (setting [4]), the EC50 lay in the range of 1 to 10 µM.

Take `C[C@H](NC(=O)c1cc(C#N)cnc1NCc1ccc(-c2cnc3[nH]nc(CN(C)C)c3c2)cc1)c1ccc(F)cc1` [Example 151, (S)-5-cyano-2-(4-(3-((dimethylamino)methyl)-1H-pyrazolo[3,4-b]pyridin-5-yl)benzyl-amino)-N-(1-(4-fluorophenyl)ethyl) nicotinamide]: at PDK1 (inhibition of PDK1 in vitro), the half-inhibitory concentration (IC50) was below 0.1 µM. In addition, the EC50 in test [1] (setting [4]) is above 10 µM.

As for `Nc1n[nH]c2ncc(-c3ccc(CNc4ncc(C(F)(F)F)cc4C(=O)NC[C@@H]4CCCO4)cc3)cc12` [Example 309, (S)-2-(4-(3-amino-1H-pyrazolo [3,4-b]pyridin-5-yl)benzylamino)-N-((tetrahydrofuran-2-yl)methyl)-5-(trifluoromethyl) nicotinamide], the IC50 on PDK1 (inhibition of PDK1 in vitro) lay within 0.1 to 1 µM. For the same compound, in test [1] (PC-3, 2 h, inhibition of P308 Akt in PC-3 cells using MSD), the EC50 fell in the range of 1 to 10 µM.

In the case of `CNc1ncc(-c2ccc(CNc3ncc(C#N)cc3C(=O)N[C@@H](C)c3ccc(F)cc3)cc2)cc1F` [Example 109], on PDK1 (inhibition of PDK1 in vitro), the IC50 was above 5 µM. In addition, in test [1] (setting [4]), the EC50 was above 10 µM.

`C[C@H](NC(=O)c1nc(C#N)cnc1NCc1ccc(-c2cnc3[nH]nc(NC(=O)C(C)(C)C)c3c2)cc1)c1ccc(F)c(F)c1` [Example 420, (S)-6-cyano-N-(1-(3,4-difluorophenyl)ethyl)-3-(4-(3-pivalamido-1H-pyrazolo[3,4-b]pyridin-5-yl)benzylamino)pyrazine-2-carboxamide]: on PDK1 (inhibition of PDK1 in vitro), the IC50 was below 0.1 µM. Further, the EC50 in test [1] (setting [4]) was 1 to 10 µM.
